# PubChem BioAssay AID2060888 (Molecular Pharmacology Branch, DTP, NCI, 2025)
# Where “and” joins values, the source holds several entries; their conditions need not be identical. Equal values may be shown once.
# System: 695427-040-R-J1-PDC complex spheroid viability
# Assay: Anticancer human tumor 695427-040-R-J1-PDC patient-derived colon adenocarcinoma cell line growth inhibition [RAS]
# Details: for viability, T/C: stronger effect = lower value
# Outline: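 Tumour cells grown as complex spheroids with HUVEC endothelial cells and mesenchymal stem cells, treated with RAS pathway inhibitor combinations. Each agent spans half-log steps from near clinical Cmax, or 10 microM where Cmax is unknown.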
# 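Also: viability read after seven days of drug exposure.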
# 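For viability, T/C in this document: 100% = DMSO vehicle control viability.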
compound,measurement,setting,value
CC(C)NCC(C(=O)N1CCN(c2ncnc3c2C(C)CC3O)CC1)c1ccc(Cl)cc1 (stereo unspecified),"viability, T/C",compound 0.0316 µM,102% [middle of 4 runs]
same,"viability, T/C",compound 0.316 µM,96.3% [middle of 4 runs]
same,"viability, T/C",compound 1 µM,88.8% [middle of 4 runs]
same,IC50,curve of compound,> 10000 nM and 10000 nM
O=C(c1ccc(F)c(F)c1Nc1ccc(I)cc1F)N1CC(O)([C@@H]2CCCCN2)C1 + C#Cc1c(F)ccc2cc(O)cc(-c3ncc4c(N5CC6CCC(C5)N6)nc(OCC56CCCN5CC(F)C6)nc4c3F)c12,IC50,"curve of first compound, second compound 0.0316 µM",40.4 nM
same,IC50,"curve of first compound, second compound 0.1 µM",31.5 nM
same,IC50,"curve of first compound, second compound 0.316 µM",31.4 nM
same,IC50,"curve of first compound, second compound 1 µM",17.7 nM
same,IC50,"curve of first compound, second compound 3.16 µM",3.68 nM
same,IC50,"curve of first compound, second compound 10 µM",< 3.16 nM
same,"viability, T/C","second compound 0.0316 µM, first compound 0.00316 µM",93.3%
same,"viability, T/C","second compound 0.0316 µM, first compound 0.01 µM",77%
same,"viability, T/C","second compound 0.0316 µM, first compound 0.0316 µM",55.7%
same,"viability, T/C","second compound 0.0316 µM, first compound 0.1 µM",30.5%
same,"viability, T/C","second compound 0.0316 µM, first compound 0.316 µM",15.2%
same,"viability, T/C","second compound 0.0316 µM, first compound 1 µM",2.92%
same,"viability, T/C","second compound 0.1 µM, first compound 0.00316 µM",92.1%
same,"viability, T/C","second compound 0.1 µM, first compound 0.01 µM",65.7%
same,"viability, T/C","second compound 0.1 µM, first compound 0.0316 µM",53.8%
same,"viability, T/C","second compound 0.1 µM, first compound 0.1 µM",30.9%
same,"viability, T/C","second compound 0.1 µM, first compound 0.316 µM",15.7%
same,"viability, T/C","second compound 0.1 µM, first compound 1 µM",2.78%
same,"viability, T/C","second compound 0.316 µM, first compound 0.00316 µM",82.9%
same,"viability, T/C","second compound 0.316 µM, first compound 0.01 µM",65.5%
same,"viability, T/C","second compound 0.316 µM, first compound 0.0316 µM",52.6%
same,"viability, T/C","second compound 0.316 µM, first compound 0.1 µM",29.9%
same,"viability, T/C","second compound 0.316 µM, first compound 0.316 µM",17%
same,"viability, T/C","second compound 0.316 µM, first compound 1 µM",4.73%
same,"viability, T/C","second compound 1 µM, first compound 0.00316 µM",59.1%
same,"viability, T/C","second compound 1 µM, first compound 0.01 µM",53.4%
same,"viability, T/C","second compound 1 µM, first compound 0.0316 µM",47%
same,"viability, T/C","second compound 1 µM, first compound 0.1 µM",23.4%
same,"viability, T/C","second compound 1 µM, first compound 0.316 µM",12.8%
same,"viability, T/C","second compound 1 µM, first compound 1 µM",3.39%
same,"viability, T/C","second compound 3.16 µM, first compound 0.00316 µM",52.2%
same,"viability, T/C","second compound 3.16 µM, first compound 0.01 µM",38.5%
same,"viability, T/C","second compound 3.16 µM, first compound 0.0316 µM",23.7%
same,"viability, T/C","second compound 3.16 µM, first compound 0.1 µM",19.6%
same,"viability, T/C","second compound 3.16 µM, first compound 0.316 µM",8.05%
same,"viability, T/C","second compound 3.16 µM, first compound 1 µM",2.3%
same,"viability, T/C","second compound 10 µM, first compound 0.00316 µM",30.1%
same,"viability, T/C","second compound 10 µM, first compound 0.01 µM",32.8%
same,"viability, T/C","second compound 10 µM, first compound 0.0316 µM",22.5%
same,"viability, T/C","second compound 10 µM, first compound 0.1 µM",11.1%
same,"viability, T/C","second compound 10 µM, first compound 0.316 µM",2.72%
same,"viability, T/C","second compound 10 µM, first compound 1 µM",1.31%
